Laboratory results as given in patent US11345762B2, “Method for preparing liquid medium composition, and preparation device and kit therefor” (NISSAN CHEMICAL INDUSTRIES, LTD., priority 2015, dated 2022).

B1: human HB-EGF: growth factor, manufactured by PEPROTECH (protein, UniProt Q99075 63-148, looked up)
Heparin-binding EGF-like …: DLQEADLDLLRVTLSSKPQALATPNKEEHGKRKKKGKGLGKKRDPCLRKYKDFCIHGECKYVKELRAPSCICHPGYHGERCHGLSL
B2: human PDGF-BB: growth factor, manufactured by PEPROTECH (protein, UniProt P01127 82-190, looked up)
Platelet-derived growth …: SLGSLTIAEPAMIAECKTRTEVFEISRRLIDRTNANFLVWPPCVEVQRCSGCCNNRNVQCRPTQVQLRPVQVRKIEIVRKKPIFKKATVTLEDHLACKCETVAAARPVT
modifications: homodimer
notes: growth factor, manufactured by PEPROTECH

Tested on: Human pancreatic cancer cell line Panc02,03
Assay: Proliferation action on Panc02,03 cell stimulated by each growth factor (ATP, CellTiter-Glo)
Format: cell-based
Conditions: for efficacy in Panc02,03 cell proliferation test using the medium composition by the production method of the present invention (in words): compared to a monolayer culture method and negative control group
[1] = Panc02,03, 3 ng/mL, medium composition of Example 13, on day 6 (head)
[2] = Panc02,03, 3 ng/mL, monolayer culture group, culture conditions on day 6 (head)
[3] = Panc02,03, 3 ng/mL, negative control group (medium free of deacylated gellan gum, low adhesion plate), on day 6 (head)
[4] = Panc02,03, 30 ng/mL, medium composition of Example 13, on day 6 (head)
[5] = Panc02,03, 30 ng/mL, monolayer culture group, culture conditions on day 6 (head)
[6] = Panc02,03, 30 ng/mL, negative control group (medium free of deacylated gellan gum, low adhesion plate), on day 6 (head)
[7] = Panc02,03, 10 ng/mL, medium composition of Example 13, on day 6 (head)
[8] = Panc02,03, 10 ng/mL, monolayer culture group, culture conditions on day 6 (head)
[9] = Panc02,03, 10 ng/mL, negative control group (medium free of deacylated gellan gum, low adhesion plate), on day 6 (head)
[10] = Panc02,03, 100 ng/mL, medium composition of Example 13, on day 6 (head)
[11] = Panc02,03, 100 ng/mL, monolayer culture group, culture conditions on day 6 (head)
[12] = Panc02,03, 100 ng/mL, negative control group (medium free of deacylated gellan gum, low adhesion plate), on day 6 (head)

Molecule	% control of RLU value (ATP measurement, luminescence intensity) [1] [% Control]	% control of RLU value (ATP measurement, luminescence intensity) [2] [% Control]	% control of RLU value (ATP measurement, luminescence intensity) [3] [% Control]	% control of RLU value (ATP measurement, luminescence intensity) [4] [% Control]	% control of RLU value (ATP measurement, luminescence intensity) [5] [% Control]	% control of RLU value (ATP measurement, luminescence intensity) [6] [% Control]	efficacy in Panc02,03 cell proliferation test using the medium composition by the production method of the present invention (in words)	% control of RLU value (ATP measurement, luminescence intensity) [7] [% Control]	% control of RLU value (ATP measurement, luminescence intensity) [8] [% Control]	% control of RLU value (ATP measurement, luminescence intensity) [9] [% Control]	% control of RLU value (ATP measurement, luminescence intensity) [10] [% Control]	% control of RLU value (ATP measurement, luminescence intensity) [11] [% Control]	% control of RLU value (ATP measurement, luminescence intensity) [12] [% Control]
human EGF: growth factor, manufactured by PEPROTECH	108	105	117	187	97	136	strongly shown						
human TGF-β1: growth factor, manufactured by PEPROTECH	102	95	114	106	99	122							
human FGF-2: growth factor, manufactured by PEPROTECH								107	108	118	100	102	99
B1				118	99	132	strongly shown				202	98	134
B2								101	98	128			
